Experimental data published in PubChem BioAssay AID248 (DTP/NCI, 2004).
“And” between values parts separate entries of the source, which are not always exact repeats. Equal entries are not always repeated. Inconclusive results and toxic doses are left out. No stated cut-off is given here; in the data, active means T/C of 150% or more; inactive means T/C below 125%.

Test system: L1210 leukemia ip in BDF1 mice, survival T/C
Test: NCI In Vivo Anticancer Drug Screen. Data for tumor model L1210 Leukemia (intraperitoneal) in B6D2F1 (BDF1) mice
Settings: endpoint: mean survival time, higher = longer survival
Outline: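 In this screen, tumor-bearing mice given compound are compared to those given vehicle, and their survival values are reported as a treated-to-control quotient.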

[1] = dose: 100.0 mg/kg/injection, schedule: Q04DX003 (ip), vehicle: saline
[2] = dose: 200.0 mg/kg/injection, schedule: Q04DX003 (ip), vehicle: saline
[3] = dose: 400.0 mg/kg/injection, schedule: Q04DX003 (ip), vehicle: saline
[4] = dose: 100.0 mg/kg/injection, schedule: Q04DX002 (ip), vehicle: Klucel (hydroxypropylcellulose) (HPC)
[5] = dose: 200.0 mg/kg/injection, schedule: Q04DX002 (ip), vehicle: Klucel (hydroxypropylcellulose) (HPC)
[6] = dose: 400.0 mg/kg/injection, schedule: Q04DX002 (ip), vehicle: Klucel (hydroxypropylcellulose) (HPC)
[7] = dose: 100.0 mg/kg/injection, schedule: Q01DX009 (ip), vehicle: Klucel (hydroxypropylcellulose) (HPC)
[8] = dose: 200.0 mg/kg/injection, schedule: Q01DX009 (ip), vehicle: Klucel (hydroxypropylcellulose) (HPC)
[9] = dose: 400.0 mg/kg/injection, schedule: Q01DX009 (ip), vehicle: Klucel (hydroxypropylcellulose) (HPC)

Measured: T/C

CC([NH-])C(=O)O.O=C(O)CN(CC(=O)O)CC(=O)O.[Co+2]
inactive: dose: 50.0 mg/kg/injection, schedule: Q01DX009 (ip), vehicle: saline 110 % of control | dose: 100.0 mg/kg/injection, schedule: Q01DX009 (ip), vehicle: saline 103 % of control | [1] 104 % of control | dose: 200.0 mg/kg/injection, schedule: Q01DX009 (ip), vehicle: saline 93 % of control | [2] 106 % of control | [3] 100 % of control

O=S=Nc1ccc([N+](=O)[O-])cc1Cl
inactive: [4] 103 % of control | [5] 106 % of control | [6] 100 % of control

NC(N)=N/N=C/c1ccc(O)cc1
inactive: dose: 15.0 mg/kg/injection, schedule: Q01DX Z (ip), vehicle: saline 104 % of control | dose: 30.0 mg/kg/injection, schedule: Q01DX Z (ip), vehicle: saline 88 % of control | dose: 30.0 mg/kg/injection, schedule: Q01DX Z (oral), vehicle: saline 94 % of control | dose: 60.0 mg/kg/injection, schedule: Q01DX Z (ip), vehicle: saline 95 % of control | dose: 60.0 mg/kg/injection, schedule: Q01DX Z (oral), vehicle: saline 94 % of control | dose: 120.0 mg/kg/injection, schedule: Q01DX Z (oral), vehicle: saline 90 % of control | dose: 240.0 mg/kg/injection, schedule: Q01DX Z (oral), vehicle: saline 100 % of control

C[N+](C)(C)CCOc1ccc(Cl)cc1
inactive: dose: 12.0 mg/kg/injection, schedule: Q04DX003 (ip), vehicle: Klucel (hydroxypropylcellulose) (HPC) 91 % of control | dose: 25.0 mg/kg/injection, schedule: Q01DX009 (ip), vehicle: Klucel (hydroxypropylcellulose) (HPC) 103 % of control | dose: 25.0 mg/kg/injection, schedule: Q04DX003 (ip), vehicle: Klucel (hydroxypropylcellulose) (HPC) 93 % of control | dose: 50.0 mg/kg/injection, schedule: Q01DX009 (ip), vehicle: Klucel (hydroxypropylcellulose) (HPC) 106 % of control | dose: 50.0 mg/kg/injection, schedule: Q04DX003 (ip), vehicle: Klucel (hydroxypropylcellulose) (HPC) 96 % of control | [7] 98 % of control

CCCC(C)CN (centres undefined)
inactive: dose: 50.0 mg/kg/injection, schedule: Q01DX009 (ip), vehicle: saline with Tween-80 100 % of control | dose: 100.0 mg/kg/injection, schedule: Q01DX009 (ip), vehicle: saline with Tween-80 104 % of control | dose: 100.0 mg/kg/injection, schedule: Q04DX003 (ip), vehicle: saline with Tween-80 100 % of control | dose: 200.0 mg/kg/injection, schedule: Q04DX003 (ip), vehicle: saline with Tween-80 98 % of control

Cc1ccc2c(c1)SN(CN1C(=O)c3ccccc3C1=O)N2
inactive: [7] 103 % of control | dose: 100.0 mg/kg/injection, schedule: Q04DX003 (ip), vehicle: Klucel (hydroxypropylcellulose) (HPC) 94 % of control | [8] 93 % of control | dose: 200.0 mg/kg/injection, schedule: Q04DX003 (ip), vehicle: Klucel (hydroxypropylcellulose) (HPC) 96 % of control | [9] 90 % of control | dose: 400.0 mg/kg/injection, schedule: Q04DX003 (ip), vehicle: Klucel (hydroxypropylcellulose) (HPC) 91 % of control

O=S(=O)(OCC1CO1)c1ccc(Cl)cc1 (centres undefined)
inactive: dose: 100.0 mg/kg/injection, schedule: Q01DX008 (ip), vehicle: Klucel (hydroxypropylcellulose) (HPC) 101 % of control | dose: 200.0 mg/kg/injection, schedule: Q01DX008 (ip), vehicle: Klucel (hydroxypropylcellulose) (HPC) 108 % of control | dose: 400.0 mg/kg/injection, schedule: Q01DX008 (ip), vehicle: Klucel (hydroxypropylcellulose) (HPC) 108 % of control

O=CN/N=C/c1ccc(Cl)c([N+](=O)[O-])c1
inactive: dose: 75.0 mg/kg/injection, schedule: Q01DX001 (ip), vehicle: acetone 93 % of control | dose: 150.0 mg/kg/injection, schedule: Q01DX001 (ip), vehicle: acetone 92 % of control | dose: 300.0 mg/kg/injection, schedule: Q01DX001 (ip), vehicle: acetone 92 % of control

O=C1c2cccc([N+](=O)[O-])c2C(=O)N1c1ncn[nH]1
inactive: dose: 44.0 mg/kg/injection, schedule: Q01DX001 (ip), vehicle: saline 93 % of control and 92 % of control | dose: 50.0 mg/kg/injection, schedule: Q01DX001 (ip), vehicle: saline 100 % of control | dose: 66.0 mg/kg/injection, schedule: Q01DX001 (ip), vehicle: saline 93 % of control and 102 % of control | dose: 100.0 mg/kg/injection, schedule: Q01DX001 (ip), vehicle: saline 95 % of control and 92 % of control | dose: 150.0 mg/kg/injection, schedule: Q01DX001 (ip), vehicle: saline 98 % of control | dose: 200.0 mg/kg/injection, schedule: Q01DX001 (ip), vehicle: saline 111 % of control | dose: 400.0 mg/kg/injection, schedule: Q01DX001 (ip), vehicle: saline 91 % of control

OCC1C2C=CC(C3C=CC32)C1CO (centres undefined)
inactive: [4] 98 % of control | [5] 98 % of control | [6] 113 % of control

Cc1nc(S(C)(=O)=O)nc(S(C)(=O)=O)c1Cl
inactive: dose: 1.5 mg/kg/injection, schedule: Q01DX001 (ip), vehicle: Klucel (hydroxypropylcellulose) (HPC) 92 % of control | dose: 3.0 mg/kg/injection, schedule: Q01DX001 (ip), vehicle: Klucel (hydroxypropylcellulose) (HPC) 95 % of control | dose: 6.0 mg/kg/injection, schedule: Q01DX001 (ip), vehicle: Klucel (hydroxypropylcellulose) (HPC) 104 % of control | dose: 12.0 mg/kg/injection, schedule: Q01DX001 (ip), vehicle: Klucel (hydroxypropylcellulose) (HPC) 104 % of control | dose: 12.5 mg/kg/injection, schedule: Q01DX001 (ip), vehicle: Klucel (hydroxypropylcellulose) (HPC) 107 % of control

O=S(=O)([O-])CC[n+]1ccc(-c2ccccc2)o1
inactive: dose: 100.0 mg/kg/injection, schedule: Q01DX001 (ip), vehicle: carboxymethylcellulose (CMC) 94 % of control | [1] 110 % of control | dose: 200.0 mg/kg/injection, schedule: Q01DX001 (ip), vehicle: carboxymethylcellulose (CMC) 97 % of control | [2] 103 % of control | dose: 400.0 mg/kg/injection, schedule: Q01DX001 (ip), vehicle: carboxymethylcellulose (CMC) 97 % of control | [3] 118 % of control

Cc1ccc(Cl)cc1NS(=O)(=O)c1cc(Cl)c(Cl)cc1Cl
inactive: [7] 93 % of control | [8] 89 % of control | [9] 94 % of control

CCOCCNCC1OC(OC)C2OC(C)(C)OC12 (centres undefined)
inactive: dose: 100.0 mg/kg/injection, schedule: Q01DX005 (ip), vehicle: saline 103 % of control | dose: 200.0 mg/kg/injection, schedule: Q01DX005 (ip), vehicle: saline 103 % of control
